# In patent US10626115B2, “Fused pyrimidinone and triazinone derivatives containing bridged nitrogen, their process of preparation and their therapeutic uses as antifungal and/or antiparasitic agents” (UNIVERSITE DE NANTES, priority 2015, dated 2020):
# Columns and labels:
# [1] = system: fluconazole-susceptible C. albicans strain: CAAL93; experiment: Antifungal susceptibility, spectrofluorimetric microdilution, CAAL93; type: cell-based; details: Candida albicans; concentration inhibiting 50% of control fluorescence; read-out: MIC values CAAL93
# Protocol: (§1) Eight strains of Candida spp. with various azoles-susceptibilities were used: • One fluconazole-susceptible C. albicans strain: CAAL93 • Two fluconazole-resistant C. albicans strains: CAAL111 (efflux pump) and CAAL117 (erg11 mutations+voriconazole-resistant) • five fluconazole-resistant Candida non albicans strains: C. krusei (CAKR7, CAKR8), C. glabrata (CAGL2), C. parapsilosis s.l. (CAPA1, CAPA2).
# (§2) Antifungal susceptibility was evaluated with a spectrofluorimetric microdilution method.
# [2] = system: fluconazole-resistant C. albicans strain CAAL111 (efflux pump); experiment: microbe, parasite or virus in culture; type: cell-based; details: Candida albicans, read-out: MIC values CAAL111
# Protocol: as §1, §2
# [3] = system: fluconazole-resistant C. albicans strain CAAL117 (erg11 mutations+voriconazole-resistant); experiment: microbe, parasite or virus in culture; type: cell-based; details: Candida albicans, read-out: MIC values CAAL117
# Protocol: as §1, §2
# [4] = system: fluconazole-resistant C. glabrata (CAGL2); experiment: microbe, parasite or virus in culture; type: cell-based; details: Nakaseomyces glabratus, read-out: MIC values CAGL2
# Protocol: as §1, §2
# [5] = system: fluconazole-resistant C. krusei (CAKR7); experiment: microbe, parasite or virus in culture; type: cell-based; details: Pichia kudriavzevii, read-out: MIC values CAKR7
# Protocol: as §1, §2
# [6] = system: fluconazole-resistant C. krusei (CAKR8); experiment: microbe, parasite or virus in culture; type: cell-based; details: Pichia kudriavzevii, read-out: MIC values CAKR8
# Protocol: as §1, §2
# [7] = system: fluconazole-resistant C. parapsilosis s.l. (CAPA1); experiment: microbe, parasite or virus in culture; type: cell-based; details: Lodderomyces parapsilosis, read-out: MIC values CAPA1
# Protocol: as §1, §2
# [8] = system: fluconazole-resistant C. parapsilosis s.l. (CAPA2); experiment: microbe, parasite or virus in culture; type: cell-based; details: Lodderomyces parapsilosis, read-out: MIC values CAPA2
# Protocol: as §1, §2
# [9] = system: A. fumigatus susceptible strain ASFU76; experiment: Antifungal susceptibility, spectrofluorimetric microdilution, ASFU76; type: cell-based, Aspergillus fumigatus; details: concentration inhibiting 80% of control fluorescence
# Protocol: (§3) Eleven strains of A. fumigatus with various itraconazole susceptibility were used: • Five susceptible strains: ASFU7, ASFU35A, ASFU38A, ASFU76 and ASFU78. • Six itraconazole-resistant strains: ASFU77 (erg11 mutation), ASFU13, ASFU17, ASFU19, ASFU20, ASFU23.
# (§4) Antifungal susceptibility was evaluated with a spectrofluorimetric microdilution method. MIC was the concentration that was able to inhibit 80% of fluorescence measured in the control wells.
# [10] = system: A. fumigatus susceptible strain ASFU35A; experiment: Antifungal susceptibility, spectrofluorimetric microdilution, ASFU35A; type: cell-based, Aspergillus fumigatus; details: concentration inhibiting 80% of control fluorescence
# Protocol: as §3, §4
# [11] = system: A. fumigatus susceptible strain ASFU38A; experiment: Antifungal susceptibility, spectrofluorimetric microdilution, ASFU38A; type: cell-based, Aspergillus fumigatus; details: concentration inhibiting 80% of control fluorescence
# Protocol: as §3, §4
# [12] = system: A. fumigatus susceptible strain ASFU7; experiment: Antifungal susceptibility, spectrofluorimetric microdilution, ASFU7; type: cell-based, Aspergillus fumigatus; details: concentration inhibiting 80% of control fluorescence
# Protocol: as §3, §4
# [13] = system: A. fumigatus susceptible strain ASFU78; experiment: Antifungal susceptibility, spectrofluorimetric microdilution, ASFU78; type: cell-based, Aspergillus fumigatus; details: concentration inhibiting 80% of control fluorescence
# Protocol: as §3, §4
# [14] = system: A. fumigatus itraconazole-resistant strain ASFU13; experiment: Antifungal susceptibility, spectrofluorimetric microdilution, ASFU13; type: cell-based, Aspergillus fumigatus
# Protocol: as §3, §4
# [15] = system: A. fumigatus itraconazole-resistant strain ASFU17; experiment: Antifungal susceptibility, spectrofluorimetric microdilution, ASFU17; type: cell-based, Aspergillus fumigatus
# Protocol: as §3, §4
# [16] = system: A. fumigatus itraconazole-resistant strain ASFU19; experiment: Antifungal susceptibility, spectrofluorimetric microdilution, ASFU19; type: cell-based, Aspergillus fumigatus
# Protocol: as §3, §4
# [17] = system: A. fumigatus itraconazole-resistant strain ASFU77 (erg11 mutation); experiment: Antifungal susceptibility, spectrofluorimetric microdilution, ASFU77; type: cell-based, Aspergillus fumigatus
# Protocol: as §3, §4
# [18] = system: A. fumigatus itraconazole-resistant strain ASFU20; experiment: Antifungal susceptibility, spectrofluorimetric microdilution, ASFU20; type: cell-based, Aspergillus fumigatus
# Protocol: as §3, §4
# [19] = system: A. fumigatus itraconazole-resistant strain ASFU23; experiment: Antifungal susceptibility, spectrofluorimetric microdilution, ASFU23; type: cell-based, Aspergillus fumigatus
# Protocol: as §3, §4
# [20] = system: Aspergillus fumigatus (ASFU7) spores; experiment: Murine invasive aspergillosis; type: in vivo; details: neutropenic Swiss mice, ASFU7 spores i.v., 10 mg/kg per os once a day for 5 days
# Protocol: Transiently neutropenic female Swiss mice were used for experiments on systemic candidiasis and invasive aspergillosis.
# Mice were inoculated intravenously with Aspergillus fumigatus (ASFU7) spores.
# Treatment was administrated once a day (10 mg/kg per os) for 5 days. […] Fungal burden of the kidney was evaluated in dead animals during the experimentation or in animals sacrificed at the end of the experimentation.
# [21] = system: promastigote stage of a Leishmania mexicana strain; experiment: Anti-Trypanosomatidae activity, promastigote stage, spectrofluorimetric microdilution; type: cell-based; details: promastigote stage; 50% of control growth; read-out: L. mexicana (IC50 μM)
# Protocol: Compounds were evaluated on the promastigote stage of a Leishmania mexicana strain using a spectrofluorimetric microdilution method. Inhibitory concentration 50 (IC50) was the concentration that inhibited 50% of the control growth.
# [22] = concentration inhibiting 80% of control fluorescence
smiles,measurement,setting,value
"OC(Cn1cncn1)(Cn1cncn1)c1ccc(F)cc1F [FLC, fluconazole, reference compound]",MIC,[1],0.036 ± 0.02 µg/mL
same,MIC,[2],> 30 µg/mL
same,MIC,[3],> 3 µg/mL
same,MIC,[4],10.1 ± 0.61 µg/mL
same,MIC,[5],> 3 µg/mL
same,MIC,[6],> 10 µg/mL
same,MIC,[7],> 30 µg/mL
same,MIC,[8],> 30 µg/mL
"CCC(C)n1ncn(-c2ccc(N3CCN(c4ccc(OCC5COC(Cn6cncn6)(c6ccc(Cl)cc6Cl)O5)cc4)CC3)cc2)c1=O (centres unmarked) [ITRA, Itraconazole, reference compound]",MIC values ASFU76,[9],0.50 ± 0.24 µg/mL
same,MIC values ASFU35A,[10],0.24 µg/mL
same,MIC values ASFU38A,[11],0.52 µg/mL
same,MIC values ASFU7,[12],0.42 ± 0.04 µg/mL
same,MIC values ASFU78,[13],0.31 µg/mL
same,MIC values ASFU13,[14]; [22],>70 µg/mL
same,MIC values ASFU17,[15]; [22],>7 µg/mL
same,MIC values ASFU19,[16]; [22],>7 µg/mL
same,MIC values ASFU77,[17]; [22],>100 µg/mL
same,MIC values ASFU20,[18]; [22],>7 µg/mL
same,MIC values ASFU23,[19]; [22],>7 µg/mL
same,survival,"[20]; 14 days, p<0.01",did survive significantly longer
same,fungal burden of the kidney,[20]; p<0.05,significantly reduced
same,IC50,[21],2.5 ± 0.7 µM
"C[C@@H](c1ncncc1F)[C@](O)(Cn1cncn1)c1ccc(F)cc1F [VOR, voriconazole, reference compound]",MIC,[1],0.005 ± 0.001 µg/mL
same,MIC,[2],0.458 ± 0.196 µg/mL
same,MIC,[3],1.1 ± 0.1 µg/mL
same,MIC,[4],0.126 ± 0.003 µg/mL
same,MIC,[5],0.817 ± 0.007 µg/mL
same,MIC,[6],0.24 ± 0.07 µg/mL
same,MIC,[7],0.95 ± 0.13 µg/mL
same,MIC,[8],0.36 ± 0.001 µg/mL
same,MIC,"[9]; Aspergillus fumigatus, read-out: MIC values ASFU76",0.64 ± 0.01 µg/mL
same,MIC,"[10]; Aspergillus fumigatus, read-out: MIC values ASFU35A",0.6 ± 0.08 µg/mL
same,MIC,"[11]; Aspergillus fumigatus, read-out: MIC values ASFU38A",0.75 ± 0.2 µg/mL
same,MIC,"[12]; Aspergillus fumigatus, read-out: MIC values ASFU7",0.15 ± 0.001 µg/mL
same,MIC,"[13]; Aspergillus fumigatus, read-out: MIC values ASFU78",0.59 ± 0.01 µg/mL
same,MIC,"[14]; Aspergillus fumigatus, read-out: MIC values ASFU13",0.136 µg/mL
same,MIC,"[15]; Aspergillus fumigatus, read-out: MIC values ASFU17",1.19 µg/mL
same,MIC,"[16]; Aspergillus fumigatus, read-out: MIC values ASFU19",1.86 µg/mL
same,MIC,"[17]; Aspergillus fumigatus, read-out: MIC values ASFU77",0.61 ± 0.04 µg/mL
same,MIC,"[18]; Aspergillus fumigatus, read-out: MIC values ASFU20",0.178 µg/mL
same,MIC,"[19]; Aspergillus fumigatus, read-out: MIC values ASFU23",0.097 µg/mL
